Some test systems named below: 786-0 renal; A498 renal; HT29 colon; NCI-H460 lung; RPMI-8226 leukemia; SF-539 CNS; SK-MEL-28 melanoma; T-47D breast; UACC-257 melanoma; UACC-62 melanoma.
Holding throughout (assay): growth of human tumour cells (NCI), 48 h

“And” between values parts separate entries of the source, which are not always exact repeats. Equal entries are not always repeated.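 How tested: cells in 96-well plates exposed to compound for 48 hours at five concentrations. At the GI50, growth is halved. TGI: concentration producing complete growth inhibition.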

In the case of `CCOC(=O)n1cc(C2=C(c3cn(C)c4ccccc34)COC2=O)c2ccccc21`, the GI50 in the assay with 786-0 renal was 268 nM; in the assay with A498 renal, 39.1 nM; with HT29 colon it was 46.4 nM; in the assay with NCI-H460 lung it was 371 nM; in the assay on RPMI-8226 leukemia it was 143 nM; in the assay on SF-539 CNS it was 119 nM. The GI50 is 1030 nM with SK-MEL-28 melanoma, 338 nM in the assay with T-47D breast, 3520 nM with UACC-257 melanoma and 59.9 nM in the assay with UACC-62 melanoma. The TGI in the assay on 786-0 renal is 15800 nM; in the assay on A498 renal, 644 nM; in the assay on NCI-H460 lung, greater than 100000 nM; with SF-539 CNS it was 584 nM; in the assay with SK-MEL-28 melanoma, greater than 100000 nM; in the assay on T-47D breast, greater than 100000 nM. For the same compound, the TGI in the assay on UACC-257 melanoma was greater than 100000 nM; with UACC-62 melanoma it was greater than 55600 nM.
As to `C=CC(=O)NCc1cccc(Nc2ncc(Br)c(NCCCNC(=O)C3CCC3)n2)c1`, the GI50 is 1290 nM and 1260 nM in the assay with 786-0 renal; 549 nM in the assay with A498 renal; 1670 nM and 270 nM in the assay on HT29 colon; 941 nM and 1270 nM with NCI-H460 lung; 1920 nM and 1880 nM in the assay with RPMI-8226 leukemia; 369 nM and 475 nM in the assay with SF-539 CNS. For the same compound, the GI50 is 2440 nM and 2260 nM in the assay with SK-MEL-28 melanoma; 4860 nM and 5070 nM in the assay with T-47D breast; 2570 nM and 3460 nM in the assay with UACC-257 melanoma; 2300 nM and 2900 nM in the assay with UACC-62 melanoma. Moreover, the TGI in the assay on 786-0 renal was 6160 nM and > 25000 nM; in the assay on A498 renal it was 2080 nM; with HT29 colon, 12500 nM and 4830 nM; in the assay with NCI-H460 lung, 4700 nM and 5550 nM; with RPMI-8226 leukemia it was 8190 nM and > 25000 nM; in the assay with SF-539 CNS, 2030 nM and 2720 nM. The TGI in the assay on SK-MEL-28 melanoma was 9940 nM and 9290 nM; in the assay with T-47D breast it was 12500 nM and 22500 nM; with UACC-257 melanoma, 12500 nM and 20600 nM; with UACC-62 melanoma it was 5230 nM and 7370 nM.
In the case of `COc1ccc2c(CN3CCC(C(=O)O)CC3)cc3cc4c(cc3c2c1)OCO4`, the GI50 is 2410 nM with 786-0 renal; 1790 nM in the assay with A498 renal; 2330 nM in the assay on HT29 colon; 2970 nM in the assay on NCI-H460 lung; 1400 nM in the assay on RPMI-8226 leukemia; 3380 nM in the assay on SF-539 CNS. Besides, the GI50 with SK-MEL-28 melanoma is 2280 nM; in the assay with T-47D breast, 3620 nM; in the assay on UACC-257 melanoma, 1850 nM; in the assay on UACC-62 melanoma, 1590 nM. For the same compound, the TGI with 786-0 renal was determined as 14200 nM; with A498 renal, 3330 nM; with HT29 colon, 13800 nM; in the assay on NCI-H460 lung it was 16100 nM; in the assay on RPMI-8226 leukemia, 3590 nM; with SF-539 CNS, 14000 nM. Moreover, the TGI with SK-MEL-28 melanoma turned out to be 6020 nM; in the assay with T-47D breast, 17700 nM; with UACC-257 melanoma, 3540 nM; in the assay with UACC-62 melanoma, 3030 nM.
As for `COc1ccc2c(c1)[nH]c(=O)c1c3cc(OC)ccc3cn21`, the GI50 was 45.3 nM in the assay on 786-0 renal; less than 10.4 nM with A498 renal; less than 14.3 nM with HT29 colon; 28.2 nM in the assay on NCI-H460 lung; 16 nM with RPMI-8226 leukemia; 17.9 nM in the assay with SF-539 CNS. The GI50 in the assay with SK-MEL-28 melanoma is 10.2 nM; in the assay with T-47D breast, 1030 nM; in the assay on UACC-257 melanoma, 14600 nM; in the assay on UACC-62 melanoma it was less than 10 nM. Besides, the TGI turned out to be 1560 nM in the assay on 786-0 renal; 1350 nM in the assay with A498 renal; 280 nM in the assay on HT29 colon; 363 nM in the assay with NCI-H460 lung; 87.4 nM in the assay on RPMI-8226 leukemia; 49.8 nM in the assay with SF-539 CNS. In addition, the TGI in the assay on SK-MEL-28 melanoma came out at 2010 nM; in the assay with T-47D breast, 3240 nM; in the assay on UACC-257 melanoma, 29100 nM; with UACC-62 melanoma, 1400 nM.
As to `O=C1c2nsnc2C(=O)c2c(F)c(F)c(F)c(F)c21`, the GI50 was 1630 nM in the assay on 786-0 renal; 1600 nM in the assay with A498 renal; 266 nM in the assay on HT29 colon; 758 nM with NCI-H460 lung; 374 nM in the assay with RPMI-8226 leukemia; 1700 nM in the assay with SF-539 CNS. Besides, the GI50 in the assay with SK-MEL-28 melanoma is 594 nM; with T-47D breast, 473 nM; in the assay with UACC-257 melanoma it was 1610 nM; with UACC-62 melanoma, 1200 nM. In addition, the TGI in the assay on 786-0 renal worked out at 3010 nM; in the assay with A498 renal, 3570 nM; in the assay with HT29 colon it was 715 nM; in the assay on NCI-H460 lung, 2340 nM; with RPMI-8226 leukemia, 1630 nM; in the assay on SF-539 CNS, 3140 nM. For the same compound, the TGI in the assay on SK-MEL-28 melanoma came out at 1760 nM; in the assay with T-47D breast, 2370 nM; with UACC-257 melanoma, 3000 nM; with UACC-62 melanoma, 2500 nM.
On to `Clc1cccc(Cl)c1C1CSc2ccccc2N=C1c1ccccc1` (stereo not drawn), for which the GI50 in the assay with 786-0 renal is 10700 nM; in the assay with A498 renal it was 13100 nM; in the assay on HT29 colon, 3170 nM; with NCI-H460 lung it was 4040 nM; in the assay with RPMI-8226 leukemia, 2460 nM; with SF-539 CNS it was 6080 nM. Besides, the GI50 in the assay with SK-MEL-28 melanoma is 4820 nM; in the assay on T-47D breast, 8390 nM; with UACC-257 melanoma, 13500 nM; in the assay on UACC-62 melanoma, 5900 nM. The TGI with 786-0 renal was 23000 nM; with A498 renal, 26600 nM; with HT29 colon it was 8640 nM; in the assay on NCI-H460 lung it was 15600 nM; with RPMI-8226 leukemia, 7100 nM; in the assay on SF-539 CNS, 18900 nM. Moreover, the TGI is 17300 nM in the assay on SK-MEL-28 melanoma, 34500 nM in the assay with T-47D breast, 27000 nM in the assay with UACC-257 melanoma and 19600 nM in the assay with UACC-62 melanoma.
On to `NC1CCC(Nc2nc(NCc3ccc(-c4cccs4)nc3)c3ncn(C4CCCC4)c3n2)CC1` (stereo not drawn), for which the GI50 in the assay on 786-0 renal is 122 nM; in the assay with A498 renal it was 72.5 nM; in the assay with HT29 colon, less than 14.3 nM; in the assay on NCI-H460 lung, 91.3 nM; with RPMI-8226 leukemia it was 22.7 nM; in the assay with SF-539 CNS, 157 nM. Also, the GI50 with SK-MEL-28 melanoma is 29.6 nM; in the assay on T-47D breast it was 33 nM; in the assay on UACC-257 melanoma it was 56.8 nM; in the assay on UACC-62 melanoma, 87 nM. The TGI in the assay on 786-0 renal stood at 1120 nM; in the assay with A498 renal, 225 nM; in the assay on HT29 colon, 315 nM; in the assay with NCI-H460 lung, 2190 nM; with RPMI-8226 leukemia, 137 nM; with SF-539 CNS it was 395 nM. The TGI in the assay with SK-MEL-28 melanoma turned out to be 117 nM; in the assay on T-47D breast, 699 nM; in the assay on UACC-257 melanoma it was 295 nM; in the assay on UACC-62 melanoma, 365 nM.

For the origin of these results see PubChem BioAssay (NCI).
